Legend:
[1] = test system: C. difficile strain MMX3581 (clinical); assay: Minimum Inhibitory Concentration (MIC) assay; format: cell-based, Clostridium difficile; conditions: Clostridioides difficile, growth 18-24 hours at 37° C.
Protocol: (§1) The MIC assays are carried out in a final volume of 100 μL in 96-well clear round-bottom plates according to methods established by the Clinical Laboratory Standards Institute (CLSI). Briefly, test compound suspended in 100% DMSO (or another suitable solubilizing buffer) is added to an aliquot of media appropriate for a given pathogen to a total volume of 50 μL. This solution is serially diluted by 2-fold into successive tubes of the same media to give a range of test compound concentrations appropriate to the assay. To each dilution of test compound in media is added 50 ? L of a bacterial suspension from an overnight culture growth in media appropriate to a given pathogen. Final bacterial inoculum is approximately 10^5-10^6 CFU/well. […] Ciprofloxacin is used as an antibiotic-positive control in each screening assay. Each of the bacterial cultures that are available from the American Type Culture Collection (ATCC, www.atcc.org) is identified by its ATCC number.

[2] = test system: C. difficile strain ATCC 700057 (MMX 4381); assay: Minimum Inhibitory Concentration (MIC) assay; format: cell-based, Clostridium difficile; conditions: Clostridioides difficile, ATCC700057; C. difficile ATCC 700057 (MMX 4381); growth 18-24 hours at 37° C.
Protocol: as §1

[3] = test system: CD3299 riboswitch; assay: In-line probing assay, binding of ligands to CD3299 riboswitch; design: species or system Clostridium difficile
Protocol: An in-line probing assay, as described in Regulski and Breaker, “In-line probing analysis of riboswitches”, (2008), Methods in Molecular Biology, Vol 419, pp 53-67, the contents of which are incorporated by reference, is used to estimate the dissociation binding constants for the interaction of each of the ligands described herein with a CD3299 riboswitch amplified from Clostridium difficile. Precursor mRNA leader molecules are prepared by in vitro transcription from templates generated by PCR and [5′-^32P]-labeling using methods described previously (Regulski and Breaker, In-line probing analysis of riboswitches (2008), Methods in Molecular Biology Vol 419, pp 53-67). Approximately 5 nM of labeled RNA precursor is incubated for 41 hours at 25° C. in 20 mM MgCl2, 50 mM Tris/HCl (pH 8.3 at 25° C.) in the presence or absence of a fixed concentration of each ligand. Binding to the CD3299 riboswitches are measured 100 ? M. In-line cleavage products are separated on 10% polyacrylamide gel electrophoresis (PAGE), and the resulting gel is visualized using a Molecular Dynamics Phosphorimager. […]
In-line probing exploits the natural ability of RNA to self-cleave at elevated pH and metal ion concentrations (pH≈8.3, 25 mM MgCl2) in a conformation-dependent manner. […] These ligand-dependent changes in RNA cleavage can be readily detected by denaturing gel electrophoresis. […]

| MIC [1] | MIC [2] | Compound | binding to the CD3299 riboswitch (in words) [3] |
| --- | --- | --- | --- |
| ≤ 64 µg/mL | ≤ 64 µg/mL | Cc1cc2nc3c(=O)[nH]c(=O)nc-3n(CCNCc3ccc(Cl)cc3)c2cc1C [Compound 1] | – |
| ≤ 64 µg/mL | ≤ 64 µg/mL | Cc1cc2nc3c(=O)[nH]c(=O)nc-3n(CCNCc3ccccc3)c2cc1C [Compound 2] | – |
| – | – | Cc1cc2nc3c(=O)[nH]c(=O)nc-3n(C[C@H](O)[C@H](O)[C@H](O)COP(=O)(O)O)c2cc1C [FMN, Flavin mononucleotide] | does not bind |
